Here are results for two compounds from paper PMC6443726, “The unfolded protein response modulators GSK2606414 and KIRA6 are potent KIT inhibitors” (Cell Death & Disease, 2019).

Each structure is given as a SMILES string.

The target of the assay is T1, KIT (Homo sapiens, UniProt P10721).
T1 construct: recombinant cytoplasmic portion of KIT, wild type (ProQinase #0997-0000-1)
Nature of the assay: MicroScale Thermophoresis (MST). It counts as binding. (In general: In MST a laser heats a spot of the sample, and binding alters the fluorescence response.)

T1 sequence (P10721 544-976 limits assumed): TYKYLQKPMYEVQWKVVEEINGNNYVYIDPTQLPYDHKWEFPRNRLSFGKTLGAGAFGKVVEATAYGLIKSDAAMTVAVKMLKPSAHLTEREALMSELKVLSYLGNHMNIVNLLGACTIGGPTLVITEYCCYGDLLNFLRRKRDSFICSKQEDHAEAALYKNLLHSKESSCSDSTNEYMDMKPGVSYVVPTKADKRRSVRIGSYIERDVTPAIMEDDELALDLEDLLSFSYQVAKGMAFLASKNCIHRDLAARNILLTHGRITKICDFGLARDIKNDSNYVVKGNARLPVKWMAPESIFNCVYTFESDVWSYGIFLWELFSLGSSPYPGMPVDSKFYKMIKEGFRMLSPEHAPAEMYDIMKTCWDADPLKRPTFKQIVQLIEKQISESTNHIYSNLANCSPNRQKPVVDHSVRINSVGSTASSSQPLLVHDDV

As usually defined, the Kd is the equilibrium constant for the complex coming apart. In the case of `Cn1cc(-c2ccc3c(c2)CCN3C(=O)Cc2cccc(C(F)(F)F)c2)c2c(N)ncnc21` [GSK414, 7-methyl-5-(1-{[3-(trifluoromethyl)phenyl]acetyl}-2,3-dihydro-1H-indol-5-yl)-7H-p yrrolo[2,3-d]pyrimidin-4-amine], binding was put at a Kd of 0.664 ± 0.294 µM.
In turn, `CC(C)(C)c1nc(-c2ccc(NC(=O)Nc3cccc(C(F)(F)F)c3)c3ccccc23)c2c(N)nccn12` [KIRA6] came in with a Kd of 10.8 ± 2.9 µM.
